Among the data in PubChem BioAssay AID328 (DTP/NCI, 2004) are T/C values, retold here.

For this test, the system named is BDF1 mice, P388 leukemia ip, median survival T/C. In words: NCI In Vivo Anticancer Drug Screen. Data for tumor model P388 Leukemia (intraperitoneal) in B6D2F1 (BDF1) mice. The note with it: endpoint: median survival time, higher = longer survival. Summed up:
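Vehicle-dosed animals serve as the reference; survival of compound-dosed, tumour-implanted mice is divided by it.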

Setting [1] is: dose: 1.0 mg/kg/injection, schedule: Q01DX009 (ip), vehicle: saline.
The mark [2] stands for this setting: dose: 100.0 mg/kg/injection, schedule: Q01DX009 (ip), vehicle: saline with Tween-80.
[3] abbreviates: dose: 200.0 mg/kg/injection, schedule: Q01DX009 (ip), vehicle: saline with Tween-80.
Where [4] appears, read: dose: 100.0 mg/kg/injection, schedule: Q04DX003 (ip), vehicle: Klucel (hydroxypropylcellulose) (HPC).
Setting [5] is: dose: 50.0 mg/kg/injection, schedule: Q01DX009 (ip), vehicle: saline with Tween-80.
Where [6] appears, read: dose: 100.0 mg/kg/injection, schedule: Q04DX003 (ip), vehicle: saline with Tween-80.
[7] abbreviates: dose: 200.0 mg/kg/injection, schedule: Q04DX003 (ip), vehicle: saline with Tween-80.
The mark [8] stands for this setting: dose: 400.0 mg/kg/injection, schedule: Q04DX003 (ip), vehicle: saline with Tween-80.
The mark [9] stands for this setting: dose: 3.12 mg/kg/injection, schedule: Q01DX009 (ip), vehicle: saline.
The mark [10] stands for this setting: dose: 6.25 mg/kg/injection, schedule: Q01DX009 (ip), vehicle: saline.
Where [11] appears, read: dose: 12.5 mg/kg/injection, schedule: Q01DX009 (ip), vehicle: saline.

“And” between values parts separate entries of the source, which are not always exact repeats. Equal entries are not always repeated. Inconclusive results and toxic doses are left out.

As for `C=C[P+](c1ccccc1)(c1ccccc1)c1ccccc1`, the T/C is, setting by setting: under setting [1], 110 % of control; (dose: 1.5 mg/kg/injection, schedule: Q01DX010 (ip), vehicle: saline) 95 % of control; (dose: 2.5 mg/kg/injection, schedule: Q01DX009 (ip), vehicle: saline) 150 % of control; (dose: 3.0 mg/kg/injection, schedule: Q01DX010 (ip), vehicle: saline) 116 % of control; (dose: 3.3 mg/kg/injection, schedule: Q04DX003 (ip), vehicle: saline) 120 % of control; (dose: 3.7 mg/kg/injection, schedule: Q01DX009 (ip), vehicle: saline) 89 % of control. In addition, for the setting “dose: 5.0 mg/kg/injection, schedule: Q01DX009 (ip), vehicle: saline”, the T/C is 95 % of control.
In the case of `Cc1cc(=O)cc(C)n1C`, the T/C reads like this: under setting [2], 104 % of control; under setting [3], 100 % of control; (dose: 400.0 mg/kg/injection, schedule: Q01DX009 (ip), vehicle: saline with Tween-80) 100 % of control.
Take `CN1C(=O)Nc2ccc(Cl)cc2C1(O)c1ccccc1` (stereo unspecified): under setting [2], the T/C is 89 % of control.
As for `CC1(C)C2CC3C(=CCCC3C#N)C1C2` (stereo unspecified), the T/C under setting [4] was 100 % of control; the T/C (dose: 200.0 mg/kg/injection, schedule: Q04DX003 (ip), vehicle: Klucel (hydroxypropylcellulose) (HPC)) was 100 % of control; the T/C (dose: 400.0 mg/kg/injection, schedule: Q04DX003 (ip), vehicle: Klucel (hydroxypropylcellulose) (HPC)) is 100 % of control.
`Nn1c(-c2ccc([N+](=O)[O-])cc2)nc2ccccc2c1=O`: the T/C under setting [5] is 90 % of control, the T/C under setting [2] is 91 % of control and the T/C under setting [3] was 91 % of control.
For the molecule `Cc1cc(C)c(NC(=O)c2ccccc2Cl)c(C)c1`, the T/C is 100 % of control under setting [6], 109 % of control under setting [7] and 95 % of control under setting [8].
As for `CC1(C)OCC(C2OC3OC(C)(C)OC3C2OP(=O)(N2CC2)N2CC2)O1` (stereo unspecified), the T/C is, setting by setting: under setting [5], 103 % of control; under setting [2], 115 % of control; under setting [3], 123 % of control.
Take `CC(=O)[C@@]1(O)CC[C@H]2[C@@H]3C[C@H](C)C4=CC(=O)C=C[C@]4(C)[C@@]3(F)[C@@H](O)C[C@@]21C`: the T/C is 109 % of control (dose: 5.0 mg/kg/injection, schedule: Q01DX010 (sc), vehicle: steriod suspending solution); 109 % of control (dose: 10.0 mg/kg/injection, schedule: Q01DX010 (sc), vehicle: steriod suspending solution); 118 % of control (dose: 20.0 mg/kg/injection, schedule: Q01DX010 (sc), vehicle: steriod suspending solution); 118 % of control (dose: 80.0 mg/kg/injection, schedule: Q01DX010 (sc), vehicle: steriod suspending solution); 95 % of control and 112 % of control (dose: 320.0 mg/kg/injection, schedule: Q01DX010 (sc), vehicle: steriod suspending solution); 112 % of control (dose: 640.0 mg/kg/injection, schedule: Q01DX010 (sc), vehicle: steriod suspending solution).
Regarding `CCCCCCCCCCCCCCCCCCNC(=O)Nc1ccc(C)c(C)c1`, the T/C runs as follows: under setting [6], 109 % of control; under setting [7], 109 % of control; under setting [8], 109 % of control.
Regarding `CCCCCCCCCCCCCCCCCCNC(=S)N/N=C/c1ccc(Cl)cc1Cl`, the T/C runs as follows: (dose: 50.0 mg/kg/injection, schedule: Q04DX003 (ip), vehicle: Klucel (hydroxypropylcellulose) (HPC)) 105 % of control; under setting [4], 90 % of control; under setting [6], 100 % of control; under setting [7], 100 % of control; under setting [8], 100 % of control.
Take `CCN1c2ccccc2CC(C#N)(CCN(C)C)c2ccccc21` (stereo unspecified): under setting [2], the T/C is 100 % of control.
Regarding `COc1ccc2c(c1)c1c(C)c3cnccc3c(C)c1n2CCCN`, the T/C reads like this: (dose: 1.56 mg/kg/injection, schedule: Q01DX009 (ip), vehicle: saline) 95 % of control; under setting [9], 95 % of control; (dose: 3.12 mg/kg/injection, schedule: Q04DX003 (ip), vehicle: saline) 112 % of control; under setting [10], 111 % of control; (dose: 6.25 mg/kg/injection, schedule: Q04DX003 (ip), vehicle: saline) 121 % of control; under setting [11], 105 % of control. The T/C is 107 % of control (dose: 12.5 mg/kg/injection, schedule: Q04DX003 (ip), vehicle: saline); 101 % of control and 104 % of control (dose: 25.0 mg/kg/injection, schedule: Q04DX003 (ip), vehicle: saline).
For `OC(CN(CCCl)CCCl)C(O)C(O)C(O)CN(CCCl)CCCl` (stereo unspecified), the T/C is, setting by setting: (dose: 0.13 mg/kg/injection, schedule: Q04DX003 (ip), vehicle: saline) 150 % of control; (dose: 0.2 mg/kg/injection, schedule: Q04DX003 (ip), vehicle: saline) 166 % of control; (dose: 0.25 mg/kg/injection, schedule: Q04DX003 (ip), vehicle: saline) 155 % of control; (dose: 0.3 mg/kg/injection, schedule: Q04DX003 (ip), vehicle: saline) 191 % of control; (dose: 0.44 mg/kg/injection, schedule: Q04DX003 (ip), vehicle: saline) 212 % of control; (dose: 0.5 mg/kg/injection, schedule: Q04DX003 (ip), vehicle: saline) 183 % of control. Moreover, the T/C by setting is: (dose: 0.67 mg/kg/injection, schedule: Q01DX009 (ip), vehicle: saline) 241 % of control; under setting [1], 219 % of control; (dose: 1.0 mg/kg/injection, schedule: Q04DX003 (ip), vehicle: saline) 177 % of control and 213 % of control; (dose: 1.5 mg/kg/injection, schedule: Q01DX009 (ip), vehicle: saline) 213 % of control; (dose: 1.5 mg/kg/injection, schedule: Q04DX003 (ip), vehicle: saline) 272 % of control and 177 % of control; (dose: 2.0 mg/kg/injection, schedule: Q04DX003 (ip), vehicle: saline) 281 % of control. In addition, the T/C runs as follows: (dose: 2.25 mg/kg/injection, schedule: Q04DX003 (ip), vehicle: saline) 245 % of control; (dose: 6.0 mg/kg/injection, schedule: Q04DX003 (ip), vehicle: saline) 86 % of control; (dose: 26.0 micrograms/kg/injection, schedule: Q04DX003 (ip), vehicle: saline) 100 % of control; (dose: 40.0 micrograms/kg/injection, schedule: Q04DX003 (ip), vehicle: saline) 112 % of control; (dose: 60.0 micrograms/kg/injection, schedule: Q04DX003 (ip), vehicle: saline) 120 % of control.
With `CC[NH-].CC[NH-].[I][Pt+2][I]`, the T/C was 190 % of control under setting [9] and 185 % of control under setting [10].
`COc1cc(-c2cc(=O)c3c(OC)c(OC)c(OC)c(OC)c3o2)cc2c1OCO2`: the T/C (dose: 100.0 mg/kg/injection, schedule: Q04DX002 (ip), vehicle: Klucel (hydroxypropylcellulose) (HPC)) was 97 % of control; the T/C (dose: 200.0 mg/kg/injection, schedule: Q04DX002 (ip), vehicle: Klucel (hydroxypropylcellulose) (HPC)) is 103 % of control; the T/C (dose: 400.0 mg/kg/injection, schedule: Q04DX002 (ip), vehicle: Klucel (hydroxypropylcellulose) (HPC)) was 97 % of control.
For `CC(=O)OC1CC(OC2C(O)CC(OC3C(O)CC(OC4CCC5(C)C(CCC6C5CCC5(C)C(C7=CC(=O)OC7)CCC65O)C4)OC3C)OC2C)OC(C)C1OC1OC(CO)C(O)C(O)C1O` (stereo unspecified), the T/C (dose: 5.0 mg/kg/injection, schedule: Q01DX010 (ip), vehicle: carboxymethylcellulose (CMC)) was 90 % of control.
Turning to `NNc1cccc(C(F)(F)F)c1`, the T/C was 106 % of control under setting [11]; 104 % of control (dose: 25.0 mg/kg/injection, schedule: Q01DX009 (ip), vehicle: saline); 117 % of control (dose: 50.0 mg/kg/injection, schedule: Q01DX009 (ip), vehicle: saline).
On to `O=CC(S)CO` (stereo unspecified), for which the T/C was 122 % of control (dose: 12.5 mg/kg/injection, schedule: Q01DX010 (ip), vehicle: carboxymethylcellulose (CMC)); 122 % of control (dose: 25.0 mg/kg/injection, schedule: Q01DX010 (ip), vehicle: carboxymethylcellulose (CMC)); 166 % of control (dose: 50.0 mg/kg/injection, schedule: Q01DX010 (ip), vehicle: carboxymethylcellulose (CMC)); 166 % of control (dose: 100.0 mg/kg/injection, schedule: Q01DX010 (ip), vehicle: carboxymethylcellulose (CMC)).
